Test results from patent publication EP0580409A2, “Cosmetic composition containing DOPA derivatives” (UNILEVER PLC, priority 1992, dated 1994).
Structures can show the parent of a compound that is named as a salt.

Columns and labels:
[1] = system: isolated living human hair follicles; test: observation of inhibition or damage of cultured hair follicles; type: cell-based; conditions: follicles cultured with test substance at 0.1mM or 1mM
Procedure: (§1) In accordance with the preferred method of culture, isolated hair follicles were maintained in 500µl of Williams E medium, containing the test substance (substituted DOPA) at a concentration of 1mM, at 37°C in an atmosphere of 5% CO₂ + 95% air in individual wells of a 24 multiwell dish (Corning), which permitted detailed observations of the colour and measurements to be made of individual hair follicles.
Groups of eight freshly isolated hair follicles were maintained in a Williams E medium under the conditions stated above. For a control group of follicles the medium contained no test substance. […]
(§2) The follicles were photographed at the start of the incubation period and again after incubation for two or four days. The growth and morphology of the follicles was monitored during the culture period.
Melanin formation by these follicles was assessed. […] The supernatant was removed, 200ul samples added to a 96 well plate and the melanin content then determined spectrophotometrically at 540nm. […] The protein content of each sample was also determined by the Folin & Lowry method, with the absorbance being read at 540nm. […] Results were expressed as ug melanin/mg soluble protein.

cultured follicles = test: melanin formation by cultured hair follicles, spectrophotometric at 540nm; type: cell-based, human; conditions: 12 cultured follicles per assay; control 1.11
Procedure: Melanin formation by these follicles was assessed. The procedure was based on that of Gardon and Gilchrest, 1989. For each assay 12 cultured follicles were placed in 500ul of 1M NaOH and incubated overnight at 4°C. The follicles were then homogenised and centrifuged at 14,000 rpm for 2 min. The supernatant was removed, 200ul samples added to a 96 well plate and the melanin content then determined spectrophotometrically at 540nm. A standard curve was also prepared from synthetic melanin dissolved in 1M NaOH. The protein content of each sample was also determined by the Folin & Lowry method, with the absorbance being read at 540nm. […] Results were expressed as ug melanin/mg soluble protein.

[2] = system: isolated living human hair follicles; test: in vitro test of darkening of hair on regrowth with isolated hair follicles in culture; type: cell-based
Text: The isolation of individual hair follicles and their culture will now be described.
The method of testing includes the important step of isolating hair follicles having an undamaged hair bulb from skin, preferably from human skin, by microdissection, but preferably without the enzymic pretreatment advocated by other workers in this field.
The critical step of separating the hair follicle with intact undamaged hair bulb from the subcutaneous fatty tissue in which it is situated accordingly involves severing the hair shaft of the follicle at a point below the epidermis or skin surface, so as to leave the hair bulb intact and undamaged while still bearing a portion of the hair shaft.
as §1
Hair shaft length measurements and colour changes, i.e. darkening, were made on these follicles, using a Nikon Diaphot inverted binocular photo microscope with eye piece measuring graticules, over seven days in culture.
Groups of eight freshly isolated hair follicles were maintained in a Williams E medium under the conditions stated above. For a control group of follicles the medium contained no test substance. For other groups of follicles the medium contained the test substance at 0.1mM concentration of 1mM concentration, In all cases the growth medium additionally contained L-glutamine (2mM), Penicillin (50 IU/ml), streptomycin (50 ug/ml), insulin (10 ug/ml) and hydrocortisone (10 ng/ml).
as §2

[3] = 0.1mM test substance in Williams E medium, after 48 hrs
[4] = 1mM test substance in Williams E medium, 96 hrs

Row | Structure (SMILES) | inhibit or damage the follicles [1] | µg Melanin/mg soluble protein (cultured follicles) | DARKENING OBSERVED [2, 3] | DARKENING OBSERVED [2, 4]
1 | NC(C(=O)O)C(O)c1ccc(O)c(O)c1 (centres unmarked) [Dihydroxyphenylserine, 3,4-dihydroxyphenylserine] | did not appear to inhibit or damage the follicles | 6.31 µg Melanin/mg soluble protein | YES (after 48 hrs) | 
2 | CC(N)(Cc1ccc(O)c(O)c1)C(=O)O (centres unmarked) [2-methyl-3-(3,4-dihydroxyphenyl)alanine, 2-methyl-3-(3,4-dihydroxyphenylalanine)] | did not appear to inhibit or damage the follicles | 8.36 µg Melanin/mg soluble protein | YES (after 48 hrs) | 
3 | COC(=O)[C@@H](N)Cc1ccc(OC(C)=O)c(OC(C)=O)c1 [methyl-3,4-diacetyl-L-DOPA hydrochloride] |  |  |  | YES (96 hrs)
4 | CC(=O)Oc1ccc(C[C@H](N)C(=O)O)cc1OC(C)=O [3,4-diacetyl-L-DOPA hydrochloride] |  |  |  | YES (96 hrs)
